Experimental data reported in article doi:10.1101/2025.09.24.678246 (bioRxiv, 2025).
Converted amounts (≈) assume the structure as drawn. “And” between values parts separate entries of the source, which are not always exact repeats. Equal entries are not always repeated. Where two headings read alike, the source gives them in different places.

Experiments:
BioA = BioA (Mycobacterium tuberculosis, UniProt P9WQ81); experiment: BioA inhibition assay (coupled BioA/BioD fluorescence displacement, IC50); assay type: biochemical; conditions: 50 nM BioA
BioA, sequence (P9WQ81 whole entry, looked up): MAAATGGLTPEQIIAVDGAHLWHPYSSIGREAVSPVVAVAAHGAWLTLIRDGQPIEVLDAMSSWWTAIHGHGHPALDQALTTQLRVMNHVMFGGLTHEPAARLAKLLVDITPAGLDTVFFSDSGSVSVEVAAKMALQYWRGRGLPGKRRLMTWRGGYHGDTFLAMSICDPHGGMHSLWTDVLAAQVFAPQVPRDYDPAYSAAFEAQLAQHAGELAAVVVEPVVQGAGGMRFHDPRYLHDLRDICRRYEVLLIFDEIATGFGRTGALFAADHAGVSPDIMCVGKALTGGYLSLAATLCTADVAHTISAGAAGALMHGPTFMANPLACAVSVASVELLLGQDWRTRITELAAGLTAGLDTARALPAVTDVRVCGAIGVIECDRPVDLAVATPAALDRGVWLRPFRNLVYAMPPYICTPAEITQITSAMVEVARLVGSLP

Mtb H37Rv [1] = experiment: microbe, parasite or virus in culture; assay type: cell-based, Mycobacterium tuberculosis; conditions: biotin-free medium; for MIC50: Mycobacterium tuberculosis, H37RV
in vivo = conditions: female, CD-1, mouse; for Vd / clearance / half-life: iv; for AUC(0-inf) / bioavailability: po, 25 mg/kg
Mtb H37Rv [2] = experiment: C48 biotin deficient TB efficacy study; assay type: in vivo, BALB/c mice; conditions: 25mg/kg
M. bovis 0AF2122 = experiment: microbe, parasite or virus in culture; assay type: cell-based; conditions: Mycobacterium tuberculosis variant bovis
M. africanum = experiment: MIC screening against M. africanum; assay type: cell-based; conditions: Mycobacterium tuberculosis, MTBC
Mtb H37Rv [3] = assay type: in vivo, BALB/c mice; conditions: for bacterial burden per mouse, Fig. 5B: 10 mg/kg
[4] = p.o. 25 mg/kg, CD-1 mice
[5] = day 7 (values identical to Control: baseline)

## O=C1CCc2cc(N3CCN(C(=O)c4ccc(F)c(Br)c4)CC3)ccc21 [C21]
BioA
  IC50: 81 nM
BioA; C21 1.58114 nM
  activity: 106%
  activity at 0.00158114 µM: 106%
BioA; C21 5 nM
  activity: 98% and 96.4%
  activity at 0.005 µM: 102%
BioA; C21 15.8114 nM
  activity: 91.7% and 90.1%
  activity at 0.0158114 µM: 91.3%
BioA; C21 50 nM
  activity: 59.9% and 51.5%
  activity at 0.05 µM: 59.5%
BioA; C21 158.114 nM
  activity: 31.6% and 29.9%
  activity at 0.158114 µM: 32%
BioA; C21 500 nM
  activity: 25%
  activity at 0.5 µM: 25.1%
BioA; C21 1581.14 nM
  activity: 18.2% and 16.8%
  activity at 1.58114 µM: 19.4%
BioA; C21 5000 nM
  activity: 7.65% and 7.4%
  activity at 5 µM: 8.48%
Mtb H37Rv [1]
  MIC50: 1.9 µM (≈ 0.793 µg/mL)
  increase in potency against Mtb versus 6: 6 fold
In vivo
  Vd: 0.37 L/kg
  clearance: 5.3 mL/min/kg
  half-life: 49.2 min
  AUC(0-inf): 108000 ng·h/mL
  bioavailability: > 100%

## NNC(=O)c1ccncc1 [INH, isoniazid, reference compound]
Mtb H37Rv [2]; [5]
  bacterial burden per mouse, Fig. 5C: 360 and 1090 and 400 and 320 and 700 and 200
  bacterial burden per mouse, Fig. 5D (second organ, not given): 1
Mtb H37Rv [2]; day 21
  bacterial burden per mouse, Fig. 5D (second organ, not given): 1
Mtb H37Rv [2]; day 28
  bacterial burden per mouse, Fig. 5C: 1
  bacterial burden per mouse, Fig. 5D (second organ, not given): 1

## CC(=O)NC[C@H]1CN(c2ccc(N3CCOCC3)c(F)c2)C(=O)O1 [Linezolid, reference compound]
M. bovis 0AF2122
  MIC: 1.56 µM (≈ 0.526 µg/mL)
M. africanum
  MIC: 1.56 µM (≈ 0.526 µg/mL)

## CO[C@H]1/C=C/O[C@@]2(C)Oc3c(C)c(O)c4c(O)c(c(/C=N/N5CCN(C)CC5)c(O)c4c3C2=O)NC(=O)/C(C)=C\C=C\[C@H](C)[C@H](O)[C@@H](C)[C@@H](O)[C@@H](C)[C@H](OC(C)=O)[C@@H]1C [Rifampicin, rifampicin, reference compound]
Mtb H37Rv [3]; day 14 (values identical to Vehicle Control: baseline)
  bacterial burden per mouse, Fig. 5B: 24500 and 14500 and 16500 and 43500 and 12750
Mtb H37Rv [3]; day 28
  bacterial burden per mouse, Fig. 5B: 8250 and 7500 and 19750 and 6250 and 14250
Mtb H37Rv [3]; day 42
  bacterial burden per mouse, Fig. 5B: 2875 and 750 and 950 and 2450 and 2025
Mtb H37Rv [3]; Rifampicin 10mg/kg p.o., Day 42, standard acute model, BALB/c, per mouse
  spleen CFU: 0 CFU

## CC(=O)c1ccc(N2CCN(C(=O)c3ccc4c(c3)OCO4)CC2)cc1 [compound 6]
BioA
  IC50: 110 nM
Mtb H37Rv [1]
  MIC50: 12 µM (≈ 4.23 µg/mL)
[4]; 0 h
  plasma concentration: 0
[4]; 3 h, 25 mg/kg
  plasma concentration: 32.3 and 18.2 and 24.6
[4]; 24 h
  plasma concentration: 1
In vivo
  Vd: 0.54 L/kg
  clearance: 30.6 mL/min/kg
  half-life: 12 min
  AUC(0-inf): 460 ng·h/mL
  bioavailability: 3.4%
